Results taken from the kinase profiling compilation of Christmann-Franck et al. (2016).

Experiments:
Experiment in all cases: radiometric filter-binding kinase assay, Kinase HotSpot
Details in all cases: compound 0.5 µM; ATP 10 µM
[1] = target: BTK (human) (UniProt Q06187)
[2] = target: MAP3K5 (human) (UniProt Q99683)
[3] = target: RPS6KA3 KD1 KD2 (human) (UniProt P51812)
[4] = target: DYRK1B (human) (UniProt Q9Y463)
[5] = target: HIPK3 (human) (UniProt Q9H422)
[6] = target: VRK1 (human) (UniProt Q99986)
Chain of VRK1 (human) (Q99986 whole entry, looked up): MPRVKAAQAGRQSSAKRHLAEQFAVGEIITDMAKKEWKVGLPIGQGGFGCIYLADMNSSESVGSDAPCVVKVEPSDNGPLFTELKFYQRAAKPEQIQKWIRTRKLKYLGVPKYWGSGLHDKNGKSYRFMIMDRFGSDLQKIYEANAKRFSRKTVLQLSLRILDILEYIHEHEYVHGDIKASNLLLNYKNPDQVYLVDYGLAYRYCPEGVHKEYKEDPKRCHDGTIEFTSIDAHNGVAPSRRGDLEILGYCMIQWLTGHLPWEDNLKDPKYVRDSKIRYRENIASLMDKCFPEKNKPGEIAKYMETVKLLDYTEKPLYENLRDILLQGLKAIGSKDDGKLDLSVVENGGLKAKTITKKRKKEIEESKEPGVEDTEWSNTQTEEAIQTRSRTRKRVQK

[7] = target: PIM1 (human) (UniProt P11309)
[8] = target: RPS6KB1 (human) (UniProt P23443)
[9] = target: DAPK3 (human) (UniProt O43293)
[10] = target: CHEK2 (human) (UniProt O96017)
Chain of CHEK2 (human) (O96017 whole entry, looked up): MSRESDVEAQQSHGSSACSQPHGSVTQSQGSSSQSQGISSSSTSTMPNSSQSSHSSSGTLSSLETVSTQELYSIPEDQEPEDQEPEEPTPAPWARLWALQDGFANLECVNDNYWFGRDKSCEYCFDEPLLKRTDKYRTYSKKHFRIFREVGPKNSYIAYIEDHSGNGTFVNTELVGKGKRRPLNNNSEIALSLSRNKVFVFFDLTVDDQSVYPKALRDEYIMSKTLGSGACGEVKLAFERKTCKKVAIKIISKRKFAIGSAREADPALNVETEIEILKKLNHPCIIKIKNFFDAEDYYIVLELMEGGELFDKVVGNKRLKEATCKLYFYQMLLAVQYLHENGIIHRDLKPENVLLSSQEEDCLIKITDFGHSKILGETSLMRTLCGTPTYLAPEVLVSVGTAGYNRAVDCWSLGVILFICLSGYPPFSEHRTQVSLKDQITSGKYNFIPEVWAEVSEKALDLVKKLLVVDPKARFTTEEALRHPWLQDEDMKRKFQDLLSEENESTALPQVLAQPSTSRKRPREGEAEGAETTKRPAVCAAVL

[11] = target: MAPK11 (human) (UniProt Q15759)
[12] = target: PRKD3 (human) (UniProt O94806)
[13] = target: ADRBK2 (human) (UniProt P35626)
Chain of ADRBK2 (human) (P35626 whole entry, looked up): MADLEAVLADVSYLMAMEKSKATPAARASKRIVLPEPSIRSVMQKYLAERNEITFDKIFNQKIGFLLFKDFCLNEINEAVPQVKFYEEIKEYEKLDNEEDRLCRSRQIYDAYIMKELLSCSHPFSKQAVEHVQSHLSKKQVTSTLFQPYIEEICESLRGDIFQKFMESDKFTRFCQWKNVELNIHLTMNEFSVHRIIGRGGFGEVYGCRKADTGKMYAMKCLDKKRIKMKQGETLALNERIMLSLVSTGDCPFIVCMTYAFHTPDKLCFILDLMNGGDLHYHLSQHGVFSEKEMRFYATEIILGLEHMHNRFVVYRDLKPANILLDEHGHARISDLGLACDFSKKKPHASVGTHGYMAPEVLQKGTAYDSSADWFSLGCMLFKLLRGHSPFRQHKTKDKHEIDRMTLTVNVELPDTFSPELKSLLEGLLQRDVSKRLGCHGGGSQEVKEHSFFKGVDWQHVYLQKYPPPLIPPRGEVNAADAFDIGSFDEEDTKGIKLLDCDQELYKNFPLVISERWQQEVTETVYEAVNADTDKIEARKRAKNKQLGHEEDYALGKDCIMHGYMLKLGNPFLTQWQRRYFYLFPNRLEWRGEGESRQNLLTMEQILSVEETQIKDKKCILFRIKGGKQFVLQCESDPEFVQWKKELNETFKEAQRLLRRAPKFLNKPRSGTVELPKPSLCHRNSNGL

[14] = target: DSTYK (human) (UniProt Q6XUX3)
[15] = target: MAP3K14 (human) (UniProt Q99558)
[16] = target: CDC42BPA (human) (UniProt Q5VT25)
[17] = target: RPS6KA4 KD2 (human) (UniProt O75676)
[18] = target: CDK1 CCNB1 (human) (UniProt P06493+P14635)
[19] = target: CSNK1G1 (human) (UniProt Q9HCP0)
[20] = target: PAK3 (human) (UniProt O75914)
[21] = target: CAMK2G (human) (UniProt Q13555)
Chain of CAMK2G (human) (Q13555 whole entry, looked up): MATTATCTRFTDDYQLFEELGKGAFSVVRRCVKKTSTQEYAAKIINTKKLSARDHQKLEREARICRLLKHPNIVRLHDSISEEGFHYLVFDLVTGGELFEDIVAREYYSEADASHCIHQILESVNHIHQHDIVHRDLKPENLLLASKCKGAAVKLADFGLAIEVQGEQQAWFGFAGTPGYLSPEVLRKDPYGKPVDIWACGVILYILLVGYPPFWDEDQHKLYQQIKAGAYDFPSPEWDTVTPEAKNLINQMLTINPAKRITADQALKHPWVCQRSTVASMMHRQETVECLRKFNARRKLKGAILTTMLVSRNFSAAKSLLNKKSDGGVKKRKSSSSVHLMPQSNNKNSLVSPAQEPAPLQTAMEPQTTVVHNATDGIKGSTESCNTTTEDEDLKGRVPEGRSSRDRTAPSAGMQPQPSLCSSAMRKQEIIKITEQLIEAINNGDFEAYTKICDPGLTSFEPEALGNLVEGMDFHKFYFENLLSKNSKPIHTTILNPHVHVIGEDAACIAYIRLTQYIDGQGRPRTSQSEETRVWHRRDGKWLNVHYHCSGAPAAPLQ

[22] = target: EPHA2 (human) (UniProt P29317)
[23] = target: PTK2B (human) (UniProt Q14289)
[24] = target: CAMKK1 (human) (UniProt Q8N5S9)
[25] = target: MAPK10 (human) (UniProt P53779)
[26] = target: ITK (human) (UniProt Q08881)
[27] = target: EPHA5 (human) (UniProt P54756)
[28] = target: MAP4K4 (human) (UniProt O95819)
[29] = target: FGFR3 (human) (UniProt P22607)
[30] = target: ACVR1B (human) (UniProt P36896)
[31] = target: PIM2 (human) (UniProt Q9P1W9)
Chain of PIM2 (human) (Q9P1W9 whole entry, looked up): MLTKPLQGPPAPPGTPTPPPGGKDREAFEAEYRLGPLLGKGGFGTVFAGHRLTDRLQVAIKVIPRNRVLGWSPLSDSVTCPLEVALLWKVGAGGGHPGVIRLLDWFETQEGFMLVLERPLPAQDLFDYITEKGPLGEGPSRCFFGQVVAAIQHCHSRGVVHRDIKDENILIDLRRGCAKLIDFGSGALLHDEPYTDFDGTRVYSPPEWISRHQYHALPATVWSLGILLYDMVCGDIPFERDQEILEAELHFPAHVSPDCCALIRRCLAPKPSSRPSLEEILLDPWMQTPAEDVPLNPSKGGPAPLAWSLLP

[32] = target: MET (human) (UniProt P08581)
[33] = target: MAP3K7 TAB1 (human) (UniProt O43318+Q15750)
Chain of MAP3K7 TAB1 (human) (O43318 whole entry, looked up): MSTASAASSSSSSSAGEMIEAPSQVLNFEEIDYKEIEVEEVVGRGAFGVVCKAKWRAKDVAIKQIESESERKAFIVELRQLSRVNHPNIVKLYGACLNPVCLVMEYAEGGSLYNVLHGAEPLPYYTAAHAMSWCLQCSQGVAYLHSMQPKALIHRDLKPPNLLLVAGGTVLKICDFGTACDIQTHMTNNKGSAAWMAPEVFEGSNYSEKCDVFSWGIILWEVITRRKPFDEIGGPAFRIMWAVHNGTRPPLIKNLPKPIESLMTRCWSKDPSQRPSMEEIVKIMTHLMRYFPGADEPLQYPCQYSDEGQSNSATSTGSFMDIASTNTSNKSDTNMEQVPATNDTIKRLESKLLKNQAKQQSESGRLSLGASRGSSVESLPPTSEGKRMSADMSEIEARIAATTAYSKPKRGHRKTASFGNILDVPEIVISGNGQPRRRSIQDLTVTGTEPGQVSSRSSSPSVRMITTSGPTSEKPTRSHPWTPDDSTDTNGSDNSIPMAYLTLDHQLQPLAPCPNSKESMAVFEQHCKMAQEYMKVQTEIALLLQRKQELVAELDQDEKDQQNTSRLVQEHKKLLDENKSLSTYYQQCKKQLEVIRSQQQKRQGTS
Chain of MAP3K7 TAB1 (human) (Q15750 whole entry, looked up): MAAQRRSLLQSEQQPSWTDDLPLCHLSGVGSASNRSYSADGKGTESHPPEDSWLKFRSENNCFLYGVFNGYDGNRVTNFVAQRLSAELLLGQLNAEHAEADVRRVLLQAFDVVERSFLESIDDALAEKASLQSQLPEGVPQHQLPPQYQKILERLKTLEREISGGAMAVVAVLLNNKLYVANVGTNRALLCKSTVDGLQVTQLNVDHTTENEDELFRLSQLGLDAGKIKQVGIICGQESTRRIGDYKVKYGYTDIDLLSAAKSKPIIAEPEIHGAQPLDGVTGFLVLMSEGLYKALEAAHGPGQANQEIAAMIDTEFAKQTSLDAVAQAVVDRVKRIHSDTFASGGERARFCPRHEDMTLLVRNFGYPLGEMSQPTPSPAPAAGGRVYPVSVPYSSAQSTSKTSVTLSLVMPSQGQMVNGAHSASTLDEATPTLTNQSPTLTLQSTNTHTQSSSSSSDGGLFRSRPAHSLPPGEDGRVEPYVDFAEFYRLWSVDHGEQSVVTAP

[34] = target: MAP3K2 (human) (UniProt Q9Y2U5)
[35] = target: STK25 (human) (UniProt O00506)
[36] = target: YES1 (human) (UniProt P07947)
[37] = target: AKT3 (human) (UniProt Q9Y243)
Chain of AKT3 (human) (Q9Y243 whole entry, looked up): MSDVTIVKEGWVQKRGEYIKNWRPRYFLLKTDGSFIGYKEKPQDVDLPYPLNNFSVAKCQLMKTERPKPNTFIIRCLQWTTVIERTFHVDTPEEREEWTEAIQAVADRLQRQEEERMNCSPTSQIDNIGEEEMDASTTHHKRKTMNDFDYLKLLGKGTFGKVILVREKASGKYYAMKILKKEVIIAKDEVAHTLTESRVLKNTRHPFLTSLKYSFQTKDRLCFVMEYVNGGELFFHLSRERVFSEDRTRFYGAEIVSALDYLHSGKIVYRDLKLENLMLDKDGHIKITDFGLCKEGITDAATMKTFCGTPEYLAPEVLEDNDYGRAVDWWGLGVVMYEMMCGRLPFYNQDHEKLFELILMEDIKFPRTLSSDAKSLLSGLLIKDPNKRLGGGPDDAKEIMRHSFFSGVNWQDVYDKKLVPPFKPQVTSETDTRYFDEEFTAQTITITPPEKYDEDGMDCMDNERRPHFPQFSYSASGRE

[38] = target: TXK (human) (UniProt P42681)
[39] = target: TNK2 (human) (UniProt Q07912)
[40] = target: NTRK1 (human) (UniProt P04629)
Chain of NTRK1 (human) (P04629 whole entry, looked up): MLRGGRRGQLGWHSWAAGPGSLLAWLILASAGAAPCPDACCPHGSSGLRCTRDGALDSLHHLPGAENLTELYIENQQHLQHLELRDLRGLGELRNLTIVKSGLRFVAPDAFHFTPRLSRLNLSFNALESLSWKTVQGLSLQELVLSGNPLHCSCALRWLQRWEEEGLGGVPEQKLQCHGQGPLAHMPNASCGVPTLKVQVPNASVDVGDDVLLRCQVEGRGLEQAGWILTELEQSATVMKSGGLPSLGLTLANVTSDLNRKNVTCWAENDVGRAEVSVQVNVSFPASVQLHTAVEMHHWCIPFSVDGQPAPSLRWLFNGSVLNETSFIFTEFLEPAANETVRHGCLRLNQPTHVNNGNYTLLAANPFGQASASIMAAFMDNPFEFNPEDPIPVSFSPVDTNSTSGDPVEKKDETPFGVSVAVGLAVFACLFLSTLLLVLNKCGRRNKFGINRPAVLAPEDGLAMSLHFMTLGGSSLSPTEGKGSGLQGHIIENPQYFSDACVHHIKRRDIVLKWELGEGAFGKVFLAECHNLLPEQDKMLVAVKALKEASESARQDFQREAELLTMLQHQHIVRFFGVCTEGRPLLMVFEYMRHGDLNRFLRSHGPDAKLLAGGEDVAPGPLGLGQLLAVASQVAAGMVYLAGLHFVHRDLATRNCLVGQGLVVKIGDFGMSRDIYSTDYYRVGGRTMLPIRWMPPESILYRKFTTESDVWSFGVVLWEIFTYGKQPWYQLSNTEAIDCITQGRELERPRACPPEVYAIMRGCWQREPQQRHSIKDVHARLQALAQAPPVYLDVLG

[41] = target: PRKCB1 (human) (UniProt P05771)
[42] = target: PRKCD (human) (UniProt Q05655)

SMILES: CSc1nc(-c2ccc(F)cc2)c(-c2ccnc(NC(C)c3ccccc3)c2)[nH]1 (centres undefined)
- residual activity [1]: 76.6%
- residual activity [2]: 106%
- residual activity [3]: 91%
- residual activity [4]: 84.6%
- residual activity [5]: 101%
- residual activity [6]: 94.1%
- residual activity [7]: 91.8%
- residual activity [8]: 91.2%
- residual activity [9]: 94.3%
- residual activity [10]: 94.2%
- residual activity [11]: 41.7%
- residual activity [12]: 82%
- residual activity [13]: 96.4%
- residual activity [14]: 102%
- residual activity [15]: 127%
- residual activity [16]: 97.5%
- residual activity [17]: 96.5%
- residual activity [18]: 106%
- residual activity [19]: 67.2%
- residual activity [20]: 94.5%
- residual activity [21]: 102%
- residual activity [22]: 98.8%
- residual activity [23]: 100%
- residual activity [24]: 104%
- residual activity [25]: 125%
- residual activity [26]: 91.6%
- residual activity [27]: 106%
- residual activity [28]: 91.6%
- residual activity [29]: 83.7%
- residual activity [30]: 95.9%
- residual activity [31]: 87.9%
- residual activity [32]: 116%
- residual activity [33]: 90.5%
- residual activity [34]: 101%
- residual activity [35]: 118%
- residual activity [36]: 91.8%
- residual activity [37]: 91.5%
- residual activity [38]: 93.1%
- residual activity [39]: 78.4%
- residual activity [40]: 91.2%
- residual activity [41]: 92.2%
- residual activity [42]: 89.1%

SMILES: COc1cc2ncnc(Nc3ccc(F)c(Cl)c3)c2cc1OCCCN1CCOCC1
- residual activity [1]: 60.6%
- residual activity [2]: 103%
- residual activity [3]: 100%
- residual activity [4]: 91.9%
- residual activity [5]: 103%
- residual activity [6]: 99.3%
- residual activity [7]: 86.4%
- residual activity [8]: 93.9%
- residual activity [9]: 95.7%
- residual activity [10]: 84%
- residual activity [11]: 95.1%
- residual activity [12]: 76.3%
- residual activity [13]: 97.9%
- residual activity [14]: 101%
- residual activity [15]: 104%
- residual activity [16]: 87.8%
- residual activity [17]: 104%
- residual activity [18]: 99.1%
- residual activity [19]: 99.5%
- residual activity [20]: 106%
- residual activity [21]: 128%
- residual activity [22]: 85.7%
- residual activity [23]: 98.9%
- residual activity [24]: 93.8%
- residual activity [25]: 102%
- residual activity [26]: 99.9%
- residual activity [27]: 95.8%
- residual activity [28]: 97.8%
- residual activity [29]: 79.3%
- residual activity [30]: 99.6%
- residual activity [31]: 96.2%
- residual activity [32]: 92.4%
- residual activity [33]: 91.3%
- residual activity [34]: 109%
- residual activity [35]: 97.4%
- residual activity [36]: 74.4%
- residual activity [37]: 84.6%
- residual activity [38]: 83.2%
- residual activity [39]: 72.8%
- residual activity [40]: 103%
- residual activity [41]: 95%
- residual activity [42]: 106%
